IC50 data for nine compounds are collected here from patent US10689345B2, “1-cyano-pyrrolidine compounds as USP30 inhibitors” (Mission Therapeutics Limited, priority 2015, dated 2020).

The target of the assay is USP30 (Homo sapiens (Human), UniProt Q70CQ3). Put plainly: USP30 biochemical FP (fluorescence polarisation) IC50 assay. The conditions noted are these: USP30 biochemical FP or FI IC50 assay (table does not say which per compound); read-out: IC50 range. How it is done:
In Vitro USP30 FP Inhibition Assay
USP30 Biochemical IC50 Assay
Dilution plates were prepared at 21 times the final concentration (2100 μM for a final concentration of 100 μM) in 50% DMSO in a 96-well polypropylene V-bottom plate (Greiner #651201). A typical 8-point dilution series would be 100, 30, 10, 3, 1, 0.3, 0.1, 0.03 μM final. Reactions were performed in duplicate in black 384 well plates (small volume, Greiner 784076) in a final reaction volume of 21 μl. Either 1 μl of 50% DMSO or diluted compound was added to the plate. USP30 was diluted in reaction buffer (40 mM Tris, pH 7.5, 0.005% Tween 20, 0.5 mg/ml BSA, 5 mM beta-mercaptoethanol) to the equivalent of 0.05 μl/well and 10 μl of diluted USP30 was added to the compound. Enzyme and compound were incubated for 30 min at room temp. Reactions were initiated by the addition of 50 nM of TAMRA labelled peptide linked to ubiquitin via an iso-peptide bond as fluorescence polarisation substrate. Reactions were read immediately after addition of substrate and following a 2 hr incubation at room temperature. Readings were performed on a Pherastar Plus (BMG Labtech). λ Excitation 540 nm; λ Emission 590 nm.

Chain of USP30 (Q70CQ3 57-517): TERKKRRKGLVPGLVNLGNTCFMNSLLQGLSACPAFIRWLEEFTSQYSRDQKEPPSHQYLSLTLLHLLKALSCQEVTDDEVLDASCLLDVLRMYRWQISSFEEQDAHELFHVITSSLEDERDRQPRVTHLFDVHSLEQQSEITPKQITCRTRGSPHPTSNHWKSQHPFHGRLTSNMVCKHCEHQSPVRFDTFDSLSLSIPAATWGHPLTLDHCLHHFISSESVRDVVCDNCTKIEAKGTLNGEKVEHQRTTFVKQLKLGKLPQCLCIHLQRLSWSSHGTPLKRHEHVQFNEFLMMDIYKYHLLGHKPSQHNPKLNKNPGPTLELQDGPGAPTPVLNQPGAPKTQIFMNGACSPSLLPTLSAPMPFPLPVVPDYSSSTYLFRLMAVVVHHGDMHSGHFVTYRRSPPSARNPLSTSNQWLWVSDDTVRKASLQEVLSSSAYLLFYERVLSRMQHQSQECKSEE

Regarding “(R)-N-(1-cyanopyrrolidin- 3-yl)-2-fluoro-3-(1-methyl- 1H-pyrazol-yl)benzamide [Example 104]”, the half-maximal inhibitory concentration (IC50) lay within 100 to 1000 nM.

As for `N#CN1C[C@H](NC(=O)c2ccc(-c3ccccc3)cc2)[C@@H](F)C1` (relative stereo) [Example 176, N-((trans)-1-cyano-4-fluoropyrrolidin-3-yl)-[1,1′-biphenyl]-4-carboxamide], the IC50 lay within 100 to 1000 nM. For the compound `N#CN1CC[C@@H](NC(=O)c2cc(F)c(N3CCOCC3)cc2F)C1` [Example 144, (R)-N-(1-cyanopyrrolidin-3-yl)-2,5-difluoro-4-morpholinobenzamide], the concentration for half-maximal inhibition (IC50) is 100 to 1000 nM. Next, `N#CN1CC[C@@H](NC(=O)c2cc(-c3ccc(Cl)cc3)no2)C1` [Example 218, (R)-3-(4-chlorophenyl)-N-(1-cyanopyrrolidin-3-yl)isoxazole-5-carboxamide]: less than 100 nM. Next, `Cc1noc(C)c1-c1ccc2cc(C(=O)N(C)[C@@H]3CCN(C#N)C3)[nH]c2c1` [Example 262, (R)-N-(1-cyanopyrrolidin-3-yl)-6-(3,5-dimethylisoxazol-4-yl)-N-methyl-1H-indole-2-carboxamide]: less than 100 nM; `N#CN1CCC(NC(=O)Nc2ccc(-c3ccccc3)cc2)C1` (stereo not drawn) [Example 254, 1-([1,1′-biphenyl]-4-yl)-3-(1-cyanopyrrolidin-3-yl)urea]: less than 100 nM; “N-((R)-1-cyanopyrrolidin- 3-yl)-((2S,6R)-2,6- dimethylmorpholino)-5- fluoroisonicotinamide [Example 140]”: 100 to 1000 nM. Next, `Cn1cc(-c2ccc3nc(C(=O)N[C@@H]4CCN(C#N)C4)c(F)n3c2)cn1` [Example 168, (R)-N-(1-cyanopyrrolidin-3-yl)-3-fluoro-6-(1-methyl-1H-pyrazol-4-yl)imidazo [1,2-a]pyridine-2-carboxamide]: 100 to 1000 nM; `Cn1cc(-c2ccc(C(=O)N[C@@H]3CCN(C#N)C3)c(F)c2F)cn1` [Example 131, (R)-N-(1-cyanopyrrolidin-3-yl)-2,3-difluoro-4-(1-methyl-1H-pyrazol-4-yl)benzamide]: less than 100 nM.
